# Assay results from patent US20250263436A1, “BROAD-SPECTRUM ANTIVIRAL DRUG FOR ENTEROVIRUS, AND APPLICATION” (WUHAN INSTITUTE OF VIROLOGY, CHINESE ACADEMY OF SCIENCES, priority 2020, published 2025).
# “And” between values parts separate entries of the source, which are not always exact repeats. Equal values may be shown once.
# Assays:
# [1] = target: T1, EV71 2C protein (Human enterovirus 71, UniProt Q66478); assay: Inhibition of helicase activity of EV71 2C protein in vitro (dsRNA unwinding); type: biochemical; conditions: MBP-EV71 2C; dsRNA substrate; 37° C. 50 min
# T1 construct: In vitro expression and purification of EV71 2C protein; made in house; host or cells: Sf9 (Spodoptera frugiperda) cells infected with recombinant baculovirus
# T1 sequence (Q66478 1112-1440 limits assumed): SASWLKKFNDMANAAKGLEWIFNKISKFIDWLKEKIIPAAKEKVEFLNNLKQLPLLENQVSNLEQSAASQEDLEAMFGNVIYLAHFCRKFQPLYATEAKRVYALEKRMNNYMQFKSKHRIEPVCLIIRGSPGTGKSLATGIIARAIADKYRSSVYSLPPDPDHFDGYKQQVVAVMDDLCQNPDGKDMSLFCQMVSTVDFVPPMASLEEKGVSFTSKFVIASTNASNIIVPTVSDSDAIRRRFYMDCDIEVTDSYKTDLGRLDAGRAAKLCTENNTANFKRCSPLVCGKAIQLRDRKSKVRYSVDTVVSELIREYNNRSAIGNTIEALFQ
# Experimental: (1) A strand labeled with HEX at a concentration of 0.2 pmol/μL was added with a complementary strand RNA at the same concentration to prepare a HEX-labeled double-stranded dsRNA substrate by annealing.
# (2) Annealing process: the reaction system was kept at 75° C. for 3 min, cooled to 25° C. at a rate of 1° C. per minute, and then kept at 25° C. for 2 min.
# (3) The target protein and the double-stranded substrate were prepared according to the standard unwinding experiment reaction system. 5 μg of polypeptide RQ and control TAT were added respectively, and single and double strands controls were set. The single strand sample was boiled at 75° C. for 3 min and then placed on ice for 2 min.
# (4) The prepared system was mixed well and then placed at 37° C. for 50 min of reaction.
# (5) A mixture obtained after the reaction was subjected to electrophoresis.
# (6) Finally, Typhoon 9500 was used for direct scan to obtain a HEX signal.
# During electrophoresis, the single strand ran faster than the double strand. Therefore, if the MBP-2C protein had helicase activity, it can unwind the double-stranded dsRNA substrate to release a single-stranded RNA, and then the lane would show two bands, upper and lower. The single-stranded RNA (lane 2) prepared by boiling at 75° C. was used as a positive control. The reaction without protein added (lane 1) was used as a negative control.
# [2] = system: EV71; assay: Inhibition of EV71 in Vero cells (viral RNA, qRT-PCR); type: cell-based, enterovirus 71 (EV71); conditions: for Percentage of viral RNA in Vero cells (%): EV71, 24 h after infection
# Experimental: (1) Different cells were plated in a 24-well plate.
# (2) When the cells grew to a confluence of 70%-80%, the DMEM medium containing 10% serum was replaced with a DMEM medium containing 2% serum (the DMEM medium containing 2% serum was added in each well at an amount of 0.5 mL), and 5 μL of EV71 virus of 1×10^6 PFU/mL was added to each well.
# (3) After 1 h, different polypeptides (RQ or control TAT) with final concentrations of 0.3125 μM, 0.625 μM, 1.25 μM, 2.5 μM, and 5 μM were added respectively. The group without polypeptide added was used as a control.
# (4) The samples were collected 24 h after the infection of EV71 virus, and RNA was extracted with the total RNA extraction kit.
# (5) The supernatant was discarded, then 350 μL of TRK lysate was added to each well, and the plate was put on a shaker for 5 min.
# (6) 350 μL of 70% ethanol (DEPC) was added to each well, and then the plate was put on a shaker for 5 min.
# (7) The solution in each well was transferred to a RNA extraction column for 1 min of centrifugation at 12000 g.
# (8) The solution obtained in the recovery tube was reloaded on the column again for 1 min of centrifugation at 12000 g.
# (9) RNA washing buffer 1 was added in the column for 30 s of centrifugation at 12000 g.
# (10) RNA washing buffer 2 was added in the column for 1 min of centrifugation at 12000 g.
# (11) Step (10) was repeated.
# (12) The column alone was centrifuged at 12000 g for 2 min to completely remove the residual RNA washing buffer.
# (13) 50 μL of DEPC water was added to the column for 2 min of centrifugation at 12000 g.
# (14) 2 μL of RNA sample was subjected to a fluorescence quantitative experiment using the one step qRT-PCR kit.
# (1) Vero E6 cells were plated in a 24-well plate.
# (3) After 1 h, different polypeptides (LQ or SQ) with final concentrations of 0.3125 μM, 0.625 μM, 1.25 μM, 2.5 μM, and 5 μM were added respectively. The group without polypeptide added was used as a control.
# [3] = system: EV71; assay: Inhibitory activity on EV71 in RD cells by CCK8 method; type: cell-based, enterovirus 71 (EV71); conditions: for Inhibition rate on EV71 virus (%): RD cells, 0.1 MOI, 24 h, CCK8
# Experimental: (1) RD cells were plated in a 96-well plate at 100 μL per well.
# (2) When the cells grew to a confluence of 70%-80%, the DMEM medium containing 10% serum was replaced with a DMEM medium containing 2% serum.
# (3) The polypeptide drug was gradiently diluted with the DMEM containing 2% FBS into concentrations of 0.15625 μM, 0.3125 μM, 0.625 μM, 1.25 μM, 2.5 μM, and 5 μM, and then added to a new 96-well plate at 100 μL per well, with 3 replicate wells for each concentration.
# (4) The diluted virus was added to the above wells at 100 μL per well. The wells with no drug and no virus added and the wells with no drug but virus added were set as controls respectively, with a final concentration of virus of 0.1 MOI.
# (4) The mixture was transferred into the 96-well plate plated with cells for another 24 h of culture, and the inhibitory activity of the polypeptide on the virus was determined by a CCK8 kit.
# (5) The inhibition rates of different concentrations of the polypeptides on virus infection were calculated according to a calculation formula of: inhibition rate of polypeptide=(well with drug-well with virus)×100%/(well with no drug-well with virus).
# (3) The polypeptide drug was gradiently diluted with the DMEM containing 2% FBS into concentrations of 0.15625 μM, 0.3125 μM, 0.625 μM, 1.25 μM, 2.5 μM, and 5 μM, and then added to a new 96-well plate at 100 μL per well, with 3 replicate wells for each concentration. (4) The diluted virus was added to the above wells at 100 μL per well. The wells with no drug and no virus added and the wells with no drug but virus added were set as controls respectively, with a final concentration of virus of 0.1 MOI.
compound,measurement,setting,value
"N=C(N)NCCC[C@H](NC(=O)[C@H](CCCNC(=N)N)NC(=O)[C@H](CCCNC(=N)N)NC(=O)[C@H](CCC(N)=O)NC(=O)[C@H](CCCNC(=N)N)NC(=O)[C@H](CCCNC(=N)N)NC(=O)[C@H](CCCCN)NC(=O)[C@H](CCCCN)NC(=O)[C@H](CCCNC(=N)N)NC(=O)CNC(=O)[C@@H](N)Cc1ccc(O)cc1)C(=O)O [TAT, YGRKKRRQRRR]",helicase activity of EV71 2C,[1],did not affect the helicase activity of 2C
same,Percentage of viral RNA in Vero cells (%),[2]; polypeptide 0.3125 μM,115.6133% and 93.75% and 91.92%
same,Percentage of viral RNA in Vero cells (%),[2]; polypeptide 0.625 μM,121.4818% and 94.87% and 149.0928%
same,Percentage of viral RNA in Vero cells (%),[2]; polypeptide 1.25 μM,111.6527% and 97.24% and 100.8214%
same,Percentage of viral RNA in Vero cells (%),[2]; polypeptide 2.5 μM,125.8799% and 103.6078% and 137.9907%
same,Percentage of viral RNA in Vero cells (%),[2]; polypeptide 5 μM,136.8661% and 104.0616% and 88.68%
same,anti-EV71 effect,[2]; Vero cells,no anti-EV71 effect
same,antiviral activity,"[3]; EV71 in RD cells, CCK8 method",no antiviral activity
same,Inhibition rate on EV71 virus (%),[3]; polypeptide 0.15625 μM,1.38% and 5.231% and 2.294%
same,Inhibition rate on EV71 virus (%),[3]; polypeptide 0.3125 μM,2.463% and 5.242% and 6.282%
same,Inhibition rate on EV71 virus (%),[3]; polypeptide 0.625 μM,8.374% and 2.34% and 7.234%
same,Inhibition rate on EV71 virus (%),[3]; polypeptide 1.25 μM,8.365% and 3.237% and 6.203%
same,Inhibition rate on EV71 virus (%),[3]; polypeptide 2.5 μM,7.373% and 4.241% and 8.213%
